In patent publication US20250057426A1, “COMPUTER-IMPLEMENTED METHODS AND ASSOCIATED SYSTEMS FOR DETECTING MALIGNANCY” (The Trustees of the University of Pennsylvania, priority 2021, published 2025):

Tested on: pulmonary lesions
Assay: Tumor-to-background ratio (TBR) during OTL38-based intraoperative molecular imaging (IMI)-guided lung resection
Format: in vivo, patients
Settings: OTL38 0.025 mg/kg infused up to 24 h prior to surgery
Method: Appropriate authorization was obtained from the University of Pennsylvania Perelman School of Medicine Institutional Review Board prior to data collection. Data was retrospectively analyzed from a prospectively collected database. Surgical procedures were performed by the surgeons at the Department of Thoracic Surgery at the Hospital of the University of Pennsylvania. A total of 279 patients were included in the study. All patients enrolled in the study presented with suspicious pulmonary nodules in conjunction with the recommendations from the Fleischner Society Guidelines for Pulmonary Nodules based on high-quality 1 mm slice thickness CT scanning. Based on institutional practice patterns, pre-operative tissue sampling and diagnosis was not mandatory. Selected patients underwent appropriate pre-operative clearance and metastatic disease work up prior to operative scheduling with video-assisted thoracoscopic surgical (VATS) lobectomy being the procedure of choice.
Analyzed patients underwent infusion of the study drug OTL38 (0.025 mg/kg) up to 24 h prior to surgery. OTL38 (C61H63N9Na4O17S4, MW: 1414.42) is a folate analog conjugated to the NIR dye, S0456. OTL38 excites at 774-776 nm and emits at 794-796 nm. […] The iridium system utilizes an excitation laser with a wavelength of 805 nm, with fluorescence detection based on a bandpass filter selective to light ranging from 825 to 850 nm. […]
Postoperatively, all the IMI images were uploaded to the deidentified secure database for analysis. Mean fluorescence intensity of the tumors was calculated from ImageJ (from National Institutes of Health) software with minimum 1000 pixels being included in the analysis. To minimize inter-observer bias, a protocol was established where the in situ and ex vivo TBRs were calculated by three blinded independent observers. Results were re-calculated by different observers if at least two blinded observer TBR measurements were not correlating (TBR values ±0.2 from each other). TBR results were then compared to final pathological diagnosis and analyzed for their correlation with in situ fluorescence. […]

CC1(C)C(/C=C/C2=C(Oc3ccc(C[C@H](NC(=O)c4ccc(NCc5cnc6nc(N)[nH]c(=O)c6n5)cc4)C(=O)[O-])cc3)C(=C/C=C3\N(CCCCS(=O)(=O)[O-])c4ccc(S(=O)(=O)[O-])cc4C3(C)C)/CCC2)=[N+](CCCCS(=O)(=O)[O-])c2ccc(S(=O)(=O)[O-])cc21.[H+].[H+].[H+].[H+] [OTL38]
In situ TBR, mean (entire cohort of 279 patients, Iridium NIR imaging, ImageJ): 2.84
Ex vivo TBR bisected tumor, mean (entire cohort, bisected specimen, 0.025 mg/kg): 4
Ex vivo TBR (back table), mean (entire cohort, resected specimen): 3.09
